Laboratory results from the supplement of paper PMC10307832.

Legend:
Test in all cases: relative viability (nuclei count vs DMSO), 5 days (fraction); higher = more cells survive
201T = system: 201T
Summary of the method: (§1)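 One day after seeding in 1536-well plates, lung cancer cell lines were dosed by pin tool. Dosing was either single-drug or a fixed anchor-drug dose plus five library-drug doses (not always all listed) in √10 steps. After 5 days, nuclei were stained in one fix-and-stain step and counted on 4× images, and relative viability is the nuclei count of treated wells over that of vehicle wells, given as the median of duplicate plates.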

BEN = system: BEN
Summary of the method: as §1

EMC-BAC-2 = system: EMC-BAC-2
Summary of the method: as §1

HARA = system: HARA
Summary of the method: as §1

HCC-44 = system: HCC-44
Summary of the method: as §1

LOU-NH91 = system: LOU-NH91
Summary of the method: as §1

NCI-H1395 = system: NCI-H1395
Summary of the method: as §1

NCI-H1666 = system: NCI-H1666
Summary of the method: as §1

NCI-H1993 = system: NCI-H1993
Summary of the method: as §1

NCI-H2009 = system: NCI-H2009
Summary of the method: as §1

NCI-H2023 = system: NCI-H2023
Summary of the method: as §1

NCI-H2087 = system: NCI-H2087
Summary of the method: as §1

NCI-H2126 = system: NCI-H2126
Summary of the method: as §1

NCI-H2347 = system: NCI-H2347
Summary of the method: as §1

NCI-H23 = system: NCI-H23
Summary of the method: as §1

NCI-H3122 = system: NCI-H3122
Summary of the method: as §1

NCI-H596 = system: NCI-H596
Summary of the method: as §1

NCI-H647 = system: NCI-H647
Summary of the method: as §1

NCI-H650 = system: NCI-H650
Summary of the method: as §1

NCI-H727 = system: NCI-H727
Summary of the method: as §1

NCI-H838 = system: NCI-H838
Summary of the method: as §1

C=C1C(=O)O[C@@H](CCCCCCCC)[C@@H]1C(=O)O [C-75] + CS(=O)(=O)CCNCc1ccc(-c2ccc3ncnc(Nc4ccc(OCc5cccc(F)c5)c(Cl)c4)c3c2)o1 [Lapatinib] (partner 2 µM) gave a relative viability (201T; first compound 0.08 µM) of 1, a relative viability (201T; first compound 0.253 µM) of 1.2 and a relative viability (201T; first compound 0.8 µM) of 0.959. For the same molecule, the relative viability (201T; first compound 2.53 µM) was 0.886, the relative viability (201T; first compound 8 µM) was 1.05 and the relative viability (BEN; first compound 0.08 µM) was 0.793. The relative viability (BEN; first compound 0.253 µM) was 0.785, the relative viability (BEN; first compound 0.8 µM) was 0.682 and the relative viability (BEN; first compound 2.53 µM) was 0.645. The relative viability (BEN; first compound 8 µM) was 0.694, the relative viability (EMC-BAC-2; first compound 0.08 µM) was 0.897 and the relative viability (EMC-BAC-2; first compound 0.253 µM) was 0.85. For the same molecule, the relative viability (EMC-BAC-2; first compound 0.8 µM) was 0.882, the relative viability (EMC-BAC-2; first compound 2.53 µM) was 0.721 and the relative viability (EMC-BAC-2; first compound 8 µM) was 0.998. The relative viability (HARA; first compound 0.08 µM) was 0.619, the relative viability (HARA; first compound 0.253 µM) was 0.511 and the relative viability (HARA; first compound 0.8 µM) was 0.646. For the same molecule, the relative viability (HARA; first compound 8 µM) was 0.825, the relative viability (HCC-44; first compound 0.08 µM) was 0.943 and the relative viability (HCC-44; first compound 0.253 µM) was 0.963. The relative viability (HCC-44; first compound 0.8 µM) was 0.943, the relative viability (HCC-44; first compound 2.53 µM) was 0.946 and the relative viability (HCC-44; first compound 8 µM) was 0.962. It also gave a relative viability (LOU-NH91; first compound 0.08 µM) of 0.821, a relative viability (LOU-NH91; first compound 0.253 µM) of 0.833 and a relative viability (LOU-NH91; first compound 0.8 µM) of 0.657. The relative viability (LOU-NH91; first compound 2.53 µM) was 0.533, the relative viability (LOU-NH91; first compound 8 µM) was 0.716 and the relative viability (NCI-H1395; first compound 0.08 µM) was 0.997. It also gave a relative viability (NCI-H1395; first compound 0.253 µM) of 1.11, a relative viability (NCI-H1395; first compound 0.8 µM) of 0.949 and a relative viability (NCI-H1395; first compound 2.53 µM) of 1.49. It also gave a relative viability (NCI-H1395; first compound 8 µM) of 1.06, a relative viability (NCI-H1666; first compound 0.08 µM) of 0.668 and a relative viability (NCI-H1666; first compound 0.253 µM) of 0.872. It also gave a relative viability (NCI-H1666; first compound 0.8 µM) of 0.54, a relative viability (NCI-H1666; first compound 2.53 µM) of 0.549 and a relative viability (NCI-H1666; first compound 8 µM) of 0.471. The relative viability (NCI-H1993; first compound 0.08 µM) was 0.796, the relative viability (NCI-H1993; first compound 0.253 µM) was 0.825 and the relative viability (NCI-H1993; first compound 0.8 µM) was 0.807. It also gave a relative viability (NCI-H1993; first compound 2.53 µM) of 0.763, a relative viability (NCI-H1993; first compound 8 µM) of 0.667 and a relative viability (NCI-H2009; first compound 0.08 µM) of 0.984. For the same molecule, the relative viability (NCI-H2009; first compound 0.253 µM) was 0.88, the relative viability (NCI-H2009; first compound 0.8 µM) was 0.901 and the relative viability (NCI-H2009; first compound 2.53 µM) was 0.939. The relative viability (NCI-H2009; first compound 8 µM) was 0.762, the relative viability (NCI-H2023; first compound 0.08 µM) was 0.963 and the relative viability (NCI-H2023; first compound 0.253 µM) was 0.956. For the same molecule, the relative viability (NCI-H2023; first compound 0.8 µM) was 0.737, the relative viability (NCI-H2023; first compound 2.53 µM) was 0.691 and the relative viability (NCI-H2023; first compound 8 µM) was 0.653. The relative viability (NCI-H2087; first compound 0.08 µM) was 1.07, the relative viability (NCI-H2087; first compound 0.253 µM) was 0.975 and the relative viability (NCI-H2087; first compound 0.8 µM) was 1.1. It also gave a relative viability (NCI-H2087; first compound 2.53 µM) of 0.868, a relative viability (NCI-H2087; first compound 8 µM) of 0.776 and a relative viability (NCI-H2126; first compound 0.08 µM) of 0.774. For the same molecule, the relative viability (NCI-H2126; first compound 0.253 µM) was 0.914, the relative viability (NCI-H2126; first compound 0.8 µM) was 0.728 and the relative viability (NCI-H2126; first compound 2.53 µM) was 0.62. It also gave a relative viability (NCI-H2126; first compound 8 µM) of 0.758, a relative viability (NCI-H2347; first compound 0.08 µM) of 0.862 and a relative viability (NCI-H2347; first compound 0.253 µM) of 0.94. It also gave a relative viability (NCI-H2347; first compound 0.8 µM) of 0.965, a relative viability (NCI-H2347; first compound 2.53 µM) of 0.828 and a relative viability (NCI-H2347; first compound 8 µM) of 1.02. It also gave a relative viability (NCI-H23; first compound 0.08 µM) of 1.16, a relative viability (NCI-H23; first compound 0.253 µM) of 1.34 and a relative viability (NCI-H23; first compound 0.8 µM) of 0.83. It also gave a relative viability (NCI-H23; first compound 2.53 µM) of 0.851, a relative viability (NCI-H23; first compound 8 µM) of 0.546 and a relative viability (NCI-H3122; first compound 0.08 µM) of 1.03. For the same molecule, the relative viability (NCI-H3122; first compound 0.253 µM) was 1.02, the relative viability (NCI-H3122; first compound 0.8 µM) was 0.997 and the relative viability (NCI-H3122; first compound 8 µM) was 1.02. The relative viability (NCI-H596; first compound 0.08 µM) was 1.08, the relative viability (NCI-H596; first compound 0.253 µM) was 1.13 and the relative viability (NCI-H596; first compound 0.8 µM) was 1.07. For the same molecule, the relative viability (NCI-H596; first compound 2.53 µM) was 0.87, the relative viability (NCI-H596; first compound 8 µM) was 1.14 and the relative viability (NCI-H647; first compound 0.08 µM) was 0.896. The relative viability (NCI-H647; first compound 0.253 µM) was 1.38, the relative viability (NCI-H647; first compound 2.53 µM) was 0.791 and the relative viability (NCI-H647; first compound 8 µM) was 0.584. It also gave a relative viability (NCI-H650; first compound 0.08 µM) of 1.02, a relative viability (NCI-H650; first compound 0.253 µM) of 0.86 and a relative viability (NCI-H650; first compound 0.8 µM) of 0.803. For the same molecule, the relative viability (NCI-H650; first compound 2.53 µM) was 0.855, the relative viability (NCI-H650; first compound 8 µM) was 0.826 and the relative viability (NCI-H727; first compound 0.08 µM) was 0.881. The relative viability (NCI-H727; first compound 0.253 µM) was 1.54, the relative viability (NCI-H727; first compound 0.8 µM) was 0.711 and the relative viability (NCI-H727; first compound 2.53 µM) was 0.841. For the same molecule, the relative viability (NCI-H727; first compound 8 µM) was 1.22, the relative viability (NCI-H838; first compound 0.08 µM) was 1.01 and the relative viability (NCI-H838; first compound 0.253 µM) was 0.726. For the same molecule, the relative viability (NCI-H838; first compound 0.8 µM) was 0.856, the relative viability (NCI-H838; first compound 2.53 µM) was 0.803 and the relative viability (NCI-H838; first compound 8 µM) was 0.876.
